Assay results published in PubChem BioAssay AID228 (DTP/NCI, 2004).
Values joined by “and” are separate entries in the source; they are usually repeats but may differ in a detail not shown here. Equal values may be shown once. Results filed as inconclusive are left out.

Test system: BDF1 mice, Friend leukemia sc, tumor weight T/C
Assay: NCI In Vivo Anticancer Drug Screen. Data for tumor model Friend Virus Leukemia (Solid) (subcutaneous) in B6D2F1 (BDF1) mice
Details: endpoint: mean tumor weight, higher = larger tumour
Description: The antitumor activity of compounds was measured in mice bearing transplantable tumors. Survival or tumor size were measured and the results are expressed as the measurement made in the treated group (T) divided by the measurement made in the vehicle treated control group (C). The tumor model used in this assay is Friend Virus Leukemia (Solid) (subcutaneous) in B6D2F1 (BDF1) mice

[1] = dose: 125.0 mg/kg/injection, schedule: Q01DX011 (ip), vehicle: carboxymethylcellulose (CMC)
[2] = dose: 9.0 mg/kg/injection, schedule: Q01DX011 (ip), vehicle: carboxymethylcellulose (CMC)
[3] = dose: 15.0 mg/kg/injection, schedule: Q01DX011 (ip), vehicle: carboxymethylcellulose (CMC)
[4] = dose: 25.0 mg/kg/injection, schedule: Q01DX011 (ip), vehicle: carboxymethylcellulose (CMC)
[5] = dose: 50.0 mg/kg/injection, schedule: Q01DX011 (ip), vehicle: carboxymethylcellulose (CMC)
[6] = dose: 100.0 mg/kg/injection, schedule: Q01DX011 (ip), vehicle: carboxymethylcellulose (CMC)

SMILES: COc1cc(OC)c(OC)cc1/C=C\c1ccnc2ccccc12
- T/C (dose: 63.0 mg/kg/injection, schedule: Q01DX011 (ip), vehicle: carboxymethylcellulose (CMC)): 78 % of control
- T/C [1]: 60 % of control
- T/C (dose: 250.0 mg/kg/injection, schedule: Q01DX011 (ip), vehicle: carboxymethylcellulose (CMC)): 64 % of control
- T/C (dose: 500.0 mg/kg/injection, schedule: Q01DX011 (ip), vehicle: carboxymethylcellulose (CMC)): 52 % of control

SMILES: CCC1/C=C/C=C/CC(C)C(O)C(C)(O)C(=O)C(C)C(O)C(C)C(=O)C(C)C(O)C(C)/C=C/C(=O)OC2C(C)C(CC1)OC1(OC(CC(C)O)C(C)CC1=O)C2C (stereo unspecified) (tested in a mixture with another compound)
- T/C (dose: 1.56 mg/kg/injection, schedule: Q01DX011 (ip), vehicle: carboxymethylcellulose (CMC)): 54 % of control
- T/C (dose: 3.12 mg/kg/injection, schedule: Q01DX011 (ip), vehicle: carboxymethylcellulose (CMC)): 64 % of control
- T/C (dose: 6.25 mg/kg/injection, schedule: Q01DX011 (ip), vehicle: carboxymethylcellulose (CMC)): 46 % of control

SMILES: CCOC(=O)NC
- T/C (dose: 75.0 mg/kg/injection, schedule: Q01DX011 (ip), vehicle: saline): 114 % of control
- T/C (dose: 150.0 mg/kg/injection, schedule: Q01DX011 (ip), vehicle: saline): 98 % of control
- T/C (dose: 300.0 mg/kg/injection, schedule: Q01DX011 (ip), vehicle: saline): 75 % of control
- T/C (dose: 500.0 mg/kg/injection, schedule: Q01DX011 (ip), vehicle: saline): 48 % of control
- T/C (dose: 600.0 mg/kg/injection, schedule: Q01DX011 (ip), vehicle: saline): 53 % of control
- T/C (dose: 750.0 mg/kg/injection, schedule: Q01DX011 (ip), vehicle: saline): 37 % of control

SMILES: O=S(=O)(O)c1cccnc1
- T/C (dose: 39.0 mg/kg/injection, schedule: Q01DX011 (ip), vehicle: carboxymethylcellulose (CMC)): 86 % of control and 101 % of control
- T/C (dose: 157.0 mg/kg/injection, schedule: Q01DX011 (ip), vehicle: carboxymethylcellulose (CMC)): 98 % of control and 110 % of control

SMILES: N=[N+]=CC(=O)OCC(N)C(=O)O (stereo unspecified)
- T/C (dose: 0.38 mg/kg/injection, schedule: Q01DX011 (ip), vehicle: carboxymethylcellulose (CMC)): 49 % of control
- T/C (dose: 0.75 mg/kg/injection, schedule: Q01DX011 (ip), vehicle: carboxymethylcellulose (CMC)): 37 % of control
- T/C (dose: 1.5 mg/kg/injection, schedule: Q01DX011 (ip), vehicle: carboxymethylcellulose (CMC)): 39 % of control and 44 % of control
- T/C (dose: 1.8 mg/kg/injection, schedule: Q01DX011 (ip), vehicle: carboxymethylcellulose (CMC)): 108 % of control
- T/C [2]: 33 % of control
- T/C (dose: 12.0 mg/kg/injection, schedule: Q01DX011 (ip), vehicle: carboxymethylcellulose (CMC)): 22 % of control and 44 % of control
- T/C [3]: 29 % of control

SMILES: CC1(C)N=C(N)N=C(N)N1c1cccc(Br)c1
- T/C [4]: 88 % of control

SMILES: CC(=O)Nc1ccc(NC(=O)c2ccc([As](O)O)cc2)cc1
- T/C (dose: 30.0 mg/kg/injection, schedule: Q01DX011 (ip), vehicle: carboxymethylcellulose (CMC)): 111 % of control
- T/C (dose: 60.0 mg/kg/injection, schedule: Q01DX011 (ip), vehicle: carboxymethylcellulose (CMC)): 109 % of control
- T/C (dose: 120.0 mg/kg/injection, schedule: Q01DX011 (ip), vehicle: carboxymethylcellulose (CMC)): 101 % of control

SMILES: CCCCCCCCCCCCCS
- T/C [5]: 109 % of control
- T/C [6]: 105 % of control
- T/C (dose: 200.0 mg/kg/injection, schedule: Q01DX011 (ip), vehicle: carboxymethylcellulose (CMC)): 101 % of control

SMILES: CC1(C)N=C(N)N=C(N)N1c1cccc(Cl)c1
- T/C (dose: 2.3 mg/kg/injection, schedule: Q01DX011 (ip), vehicle: carboxymethylcellulose (CMC)): 91 % of control
- T/C (dose: 4.6 mg/kg/injection, schedule: Q01DX011 (ip), vehicle: carboxymethylcellulose (CMC)): 104 % of control
- T/C (dose: 9.2 mg/kg/injection, schedule: Q01DX011 (ip), vehicle: carboxymethylcellulose (CMC)): 108 % of control

SMILES: O=C(Nc1ccc(C2=NCCN2)cc1)c1ccc(C(=O)Nc2ccc(C3=NCCN3)cc2)cc1
- T/C (dose: 31.25 mg/kg/injection, schedule: Q01DX011 (ip), vehicle: carboxymethylcellulose (CMC)): 94 % of control
- T/C (dose: 62.5 mg/kg/injection, schedule: Q01DX011 (ip), vehicle: carboxymethylcellulose (CMC)): 89 % of control
- T/C [6]: 99 % of control
- T/C [1]: 5 % of control
- T/C (dose: 187.0 mg/kg/injection, schedule: Q01DX011 (ip), vehicle: carboxymethylcellulose (CMC)): 32 % of control

SMILES: Cc1ccc(N=NN(C)C)cc1
- T/C [4]: 110 % of control
- T/C [5]: 90 % of control
- T/C [6]: 28 % of control

SMILES: S=P(N1CCOCC1)(N1CC1)N1CC1
- T/C (dose: 12.5 mg/kg/injection, schedule: Q01DX011 (ip), vehicle: carboxymethylcellulose (CMC)): 71 % of control
- T/C [4]: 41 % of control

SMILES: Nc1ccc(C(=O)O)c(O)c1
- T/C (dose: 37.8 mg/kg/injection, schedule: Q01DX011 (ip), vehicle: carboxymethylcellulose (CMC)): 82 % of control
- T/C (dose: 75.7 mg/kg/injection, schedule: Q01DX011 (ip), vehicle: carboxymethylcellulose (CMC)): 101 % of control
- T/C (dose: 151.5 mg/kg/injection, schedule: Q01DX011 (ip), vehicle: carboxymethylcellulose (CMC)): 113 % of control
- T/C (dose: 303.0 mg/kg/injection, schedule: Q01DX011 (ip), vehicle: carboxymethylcellulose (CMC)): 95 % of control

SMILES: NC1(C(=O)O)CCCC1
- T/C (dose: 4.5 mg/kg/injection, schedule: Q01DX011 (ip), vehicle: carboxymethylcellulose (CMC)): 95 % of control
- T/C [2]: 89 % of control
- T/C (dose: 18.0 mg/kg/injection, schedule: Q01DX011 (ip), vehicle: carboxymethylcellulose (CMC)): 63 % of control
- T/C (dose: 36.0 mg/kg/injection, schedule: Q01DX011 (ip), vehicle: carboxymethylcellulose (CMC)): 53 % of control

SMILES: O=C1CN(/N=C\c2ccc([N+](=O)[O-])o2)C(=O)N1
- T/C (dose: 4.7 mg/kg/injection, schedule: Q01DX011 (ip), vehicle: carboxymethylcellulose (CMC)): 101 % of control
- T/C (dose: 9.5 mg/kg/injection, schedule: Q01DX011 (ip), vehicle: carboxymethylcellulose (CMC)): 91 % of control and 96 % of control
- T/C (dose: 19.0 mg/kg/injection, schedule: Q01DX011 (ip), vehicle: carboxymethylcellulose (CMC)): 96 % of control and 100 % of control

SMILES: CC(=O)OCC(=O)[C@@]1(O)CC[C@H]2[C@@H]3CCC4=CC(=O)CC[C@]4(C)[C@H]3[C@@H](O)C[C@@]21C
- T/C (dose: 2.25 mg/kg/injection, schedule: Q01DX011 (sc), vehicle: steriod suspending solution): 267 % of control
- T/C (dose: 8.5 mg/kg/injection, schedule: Q01DX011 (sc), vehicle: steriod suspending solution): 73 % of control
- T/C (dose: 9.0 mg/kg/injection, schedule: Q01DX011 (sc), vehicle: steriod suspending solution): 88 % of control
- T/C (dose: 17.0 mg/kg/injection, schedule: Q01DX011 (sc), vehicle: steriod suspending solution): 105 % of control
- T/C (dose: 30.0 mg/kg/injection, schedule: Q01DX011 (sc), vehicle: steriod suspending solution): 44 % of control
- T/C (dose: 60.0 mg/kg/injection, schedule: Q01DX011 (sc), vehicle: steriod suspending solution): 32 % of control
- T/C (dose: 68.0 mg/kg/injection, schedule: Q01DX011 (sc), vehicle: steriod suspending solution): 60 % of control
- T/C (dose: 90.0 mg/kg/injection, schedule: Q01DX011 (sc), vehicle: steriod suspending solution): 29 % of control

SMILES: C=CC(=O)NCNC(=O)C=C
- T/C (dose: 15.0 mg/kg/injection, schedule: Q01DX011 (ip), vehicle: saline): 89 % of control
- T/C (dose: 30.0 mg/kg/injection, schedule: Q01DX011 (ip), vehicle: saline): 84 % of control
- T/C (dose: 60.0 mg/kg/injection, schedule: Q01DX011 (ip), vehicle: saline): 70 % of control and 51 % of control
- T/C (dose: 120.0 mg/kg/injection, schedule: Q01DX011 (ip), vehicle: saline): 16 % of control and 39 % of control

SMILES: C[C@@H]1C[C@@H]([C@H](O)CC2CC(=O)NC(=O)C2)C(=O)[C@@H](C)C1
- T/C (dose: 4.3 mg/kg/injection, schedule: Q01DX011 (ip), vehicle: carboxymethylcellulose (CMC)): 80 % of control
- T/C [3]: 31 % of control and 46 % of control

SMILES: Cc1cc2nc3c(=O)[nH]c(=O)nc-3n(CCOC(=O)CCC(=O)O)c2cc1C
- T/C (dose: 42.0 mg/kg/injection, schedule: Q01DX011 (ip), vehicle: carboxymethylcellulose (CMC)): 96 % of control
- T/C (dose: 84.0 mg/kg/injection, schedule: Q01DX011 (ip), vehicle: carboxymethylcellulose (CMC)): 108 % of control
- T/C (dose: 168.0 mg/kg/injection, schedule: Q01DX011 (ip), vehicle: carboxymethylcellulose (CMC)): 83 % of control
- T/C (dose: 236.0 mg/kg/injection, schedule: Q01DX011 (ip), vehicle: carboxymethylcellulose (CMC)): 59 % of control
